Results: US10130602B2, “Use of L-carnitine, salts and derivatives thereof for reducing or preventing fatigue and improving cognitive function” (priority 2011, dated 2018)

Assays:
Format in all cases: in vivo, human
[1] = system: healthy, young male and female adults; experiment: Bond-Lader mood scales
Procedure: (§1) In the current double-blind, placebo-controlled, balanced cross-over experiment we assessed the effects of single doses of LC (500 mg and 2000 mg) and ALC (1000 mg), administered on separate occasions, on mental fatigue and cognitive function during extended performance of mentally demanding tasks in healthy, young male and female adults.
(§2) 20 healthy adults (10 male, 10 female, 18 to 25 years) who had not taken prescription or illicit drugs or any food supplements within the preceding 4 weeks were recruited. Smokers and excessive consumers of caffeine were excluded, as were those who had consumed alcohol or caffeine within the 12 hours prior to a testing session.
Prior to and following the tasks mood was assessed with Bond and Lader scales. This measure has been utilised in numerous pharmacological, psychopharmacological and medical trials. The scales comprise a total of sixteen lines (approximately 100 mm on screen) anchored at either end by antonyms (e.g. alert-drowsy, calm-excited). Subjects indicate their current subjective position between the antonyms on the line. Individual item scores were calculated as % distance along the line. Outcomes comprised three factor analysis derived scores: ‘Alertness’, ‘Calmness’ and ‘Contentment’.
(§3) Following the introductory visit participants attended the laboratory at 8.30 am on four further occasions, one week apart, receiving a different treatment on each occasion. They fasted (no food or drink except for water) and consumed no caffeine or alcohol for at least 12 hours prior to each session. On their first study day participants were randomly allocated to a treatment regime on the Latin square. On arrival on each occasion participants consumed a standard breakfast (40 g Kellogg's All-bran with 150 ml skimmed milk and a glass of water) following which they undertook an initial cognitive/mood assessment comprising completion of the attention tasks (‘Simple’/‘Choice’/‘Four choice’ reaction time) followed by 2 completions of the 10 minute CDB tasks (the first completion was a practice and the second was used for baseline assessment of performance) and the Stroop and Logical Reasoning tasks. They then consumed their treatment for that day. At 120 minutes post-dose they completed the attention tasks then commenced the full 60 minute (i.e. 6 completions of the 10 minutes of tasks) CDB. Following completion of the CDB participants completed the ‘Logical Reasoning’ and the ‘Stroop’ executive function tasks. Mood was assessed with Bond-Lader mood scales pre-treatment and before and after the post-treatment cognitive assessment. The set-up is shown schematically in FIG. 1.
(§4) Statistical analysis for all of the cognitive/fatigue and mood measures derived from the battery were analysed by repeated measures Analysis of Variance (ANOVA) of baseline adjusted data (calculated against pre-dose). Measures with a single post-dose repetition (attention tasks, executive tasks) were analysed by one way ANOVA (condition). Measures with multiple post-dose repetitions (Mood, CDB) were analysed with two way ANOVA (condition×repetition). Planned comparisons (placebo versus each active treatment) were then undertaken on baseline adjusted data from the single completion, or each of the multiple completions, as appropriate, utilising t-tests with Mean Squares Error from the ANOVA (Keppel 1991).

[2] = system: healthy, young male and female adults; experiment: Cognitive Demand Battery (CDB), overall performance; details: for Beneficial effect on fatigue / cognitive function, overall statement: general statement, preliminary findings for acetyl-L-carnitine
Text: The working hypothesis underlying this approach is that neural activity is costly in terms of local neural resources (e.g. metabolic substrates) and that the brain is therefore liable to suffer deficiencies in the short term. Any psychoactive properties of a test substance are therefore liable to be more readily apparent during this period of intense cognitive demand and the ‘mental fatigue’ state elicited by prolonged task performance. This paradigm may therefore be more sensitive than the use of less demanding cognitive tasks, particularly if an intervention has an impact on the delivery or utilisation of metabolic substrates.
as §1, §2
Each participant received each treatment in an order counterbalanced by random allocation to a Latin square. Depending on the condition to which the participant was allocated on each day they received 4 capsules containing either 500 mg LC or 500 mg ALC or a placebo which were combined to give a total dose of either:
(§5) The objective of this battery is to assess the impact of a treatment on speed/accuracy and mental fatigue during continuous performance of cognitively demanding tasks. […] The 10 minute battery comprises:
as §3, with “Following completion of the CDB participants completed the ‘Logical Reasoning’ and the ‘Stroop’ executive function tasks.” left out, “The set-up is shown schematically in FIG. 1.” left out
(§6) Statistical analysis for all of the cognitive/fatigue and mood measures derived from the battery were analysed by repeated measures Analysis of Variance (ANOVA) of baseline adjusted data (calculated against pre-dose). Measures with a single post-dose repetition (attention tasks, executive tasks) were analysed by one way ANOVA (condition). Measures with multiple post-dose repetitions (Mood, CDB) were analysed with two way ANOVA (condition×repetition). […]

[3] = system: healthy, young male and female adults; experiment: Cognitive Demand Battery: Serial Threes subtractions
Procedure: as §1, §2, §5
Modified, two minute, computerised versions of the Serial Threes and Serial Sevens tests were utilised. For both tasks a standard instruction screen informed the participant to count backwards in threes or sevens from the given randomly generated number, as quickly and accurately as possible, using the linear number keys to enter each response. Participants were also instructed verbally that if they made a mistake they should continue subtracting from the new, incorrect number. Each three-digit response was entered using the linear number keys on the keyboard with each digit being represented on screen by an asterisk. Pressing the enter key signals the end of each response and clears the three asterisks from the screen. The task was scored for total number of subtractions and number of errors. In the case of incorrect responses, subsequent responses were scored as positive if they were correct in relation to the new number.
as §3, with “Following completion of the CDB participants completed the ‘Logical Reasoning’ and the ‘Stroop’ executive function tasks.” left out, “The set-up is shown schematically in FIG. 1.” left out
as §6

[4] = system: healthy male and female individuals aged between 20 and 40 years; experiment: CogState 12 minute Early Phase cognitive test battery
Procedure: Effects of carnitine on cognitive function were studied with a CogState™ 12 minute Early Phase cognitive test battery. The test was developed by CogState, US, and is described in U.S. Pat. No. 7,163,513 B2. The test uses playing cards and computer mazes for measuring the cognitive domains of executive function, psychomotor function, visual attention and visual learning. Tasks correspond to cognitive domains as follows: Maze learning task. […] It was carried out with 20 healthy male and female individuals aged between 20 and 40 years. The test was double-blind and placebo-controlled and studied effects of 500 mg L-carnitine, administered as 736 mg L-carnitine L-tartrate (Carnipure™ tartrate, Lonza AG) in water in a single dose. A single test battery of about 10 min comprised maze learning task, a detection task with playing cards, an identification task with playing cards and a one card learning task. Consecutive accomplishing of the test battery took place twice prior to and hourly after intake of the study preparation over a period of 6 hours.

[5] = system: healthy, young male and female adults; experiment: Cognitive Demand Battery: Serial Sevens subtractions
Procedure: as §1, §2, §5
Modified, two minute, computerised versions of the Serial Threes and Serial Sevens tests were utilised. […] The task was scored for total number of subtractions and number of errors. In the case of incorrect responses, subsequent responses were scored as positive if they were correct in relation to the new number.
Following the introductory visit participants attended the laboratory at 8.30 am on four further occasions, one week apart, receiving a different treatment on each occasion. […] Mood was assessed with Bond-Lader mood scales pre-treatment and before and after the post-treatment cognitive assessment. […]
as §6

[6] = system: healthy, young male and female adults; experiment: Cognitive Demand Battery: subjective 'mental fatigue' scale
Procedure: as §1, §2, §5
At the end of each set of tasks participants were asked to indicate how mentally fatigued they felt by marking a 100 mm line with the end-points labelled “not at all” and “extremely”.
as §3, with “Following completion of the CDB participants completed the ‘Logical Reasoning’ and the ‘Stroop’ executive function tasks.” left out, “The set-up is shown schematically in FIG. 1.” left out
as §6

[7] = system: healthy, young male and female adults; experiment: Cognitive Demand Battery: Rapid Visual Information Processing task (RVIP)
Procedure: as §1, §2, §5
The participants monitored a continuous series of digits for targets of three consecutive odd or three consecutive even digits. The digits were presented at the rate of 100 per minute and the participants responded to the detection of a target string by pressing a response key as quickly as possible. The task is continuous and lasts for 5 minutes, with 8 correct target strings being presented in each minute. The task was scored for percentage of target strings correctly detected, average reaction time for correct detections, and number of false alarms.
as §3, §4

[8] = 500 mg single dose in water, hourly over 6 hours

## CC(=O)O[C@H](CC(=O)[O-])C[N+](C)(C)C [ALC, acetyl-L-carnitine]
[1]; 1000 mg single dose, after the post-dose tasks, p=0.015
  Bond-Lader content rating compared to placebo: less content
[1]; 1000 mg single dose, before the post-dose tasks, p=0.001
  Bond-Lader content rating compared to placebo: less content
[1]; 1000 mg single dose, before undertaking the post-dose tasks, p=0.009
  Bond-Lader alert rating compared to placebo: less alert
[1]; 1000 mg single dose, second post-dose time-point as printed
  Bond-Lader alertness (summary of findings): lower levels of alertness
[2]; 1000 mg single dose
  Performance of the CDB in comparison to placebo: no evidence of benefits
[2]
  Beneficial effect on fatigue / cognitive function, overall statement: at best moderate

## C[N+](C)(C)C[C@H](O)CC(=O)[O-] [LC, L-carnitine]
[3]; 500 mg single dose, 2nd repetition, p=0.08
  Serial 3s number of subtractions compared to placebo: statistical trends towards the same effect
[3]; 500 mg single dose, 3rd repetition, p=0.09
  Serial 3s number of subtractions compared to placebo: statistical trends towards the same effect
[3]; 500 mg single dose, 4th repetition, planned comparison p=0.006
  Serial 3s number of subtractions compared to placebo: more subtractions
[3]; 500 mg single dose, 6th repetition, p=0.016
  Serial 3s number of subtractions compared to placebo: more subtractions
[3]; 2000 mg single dose, 5th repetition, p=0.04, may be type 1 error
  Serial 3s number of subtractions compared to placebo: more subtractions
[4]; 500 mg single dose in water, after four, five and six hours
  Psychomotor function (detection task): decrease of psychomotor function
[4]; 500 mg single dose in water, at the time of decreased psychomotor function (4-6 hours)
  Higher cognitive processes, such as memory and executive function: not impaired
[4]; [8]
  Visual attentional function (identification task): no significant effect
  Visual learning (one card learning task): no significant effect
[4]; 500 mg single dose in water, two hours after intake, individuals without fatigue
  Executive function (maze learning task): some evidence for a short-acting benefit
[4]; 500 mg single dose, beyond approximately two hours
  Long time improvement of cognitive function: not observed
[5]; 500 mg single dose, 2nd repetition, p=0.044
  Serial 7s number of subtractions compared to placebo: more subtractions
[5]; 500 mg single dose, 4th repetition, p=0.018
  Serial 7s number of subtractions compared to placebo: more subtractions
[5]; 2000 mg single dose, 4th repetition, p=0.053
  Serial 7s number of subtractions compared to placebo: trend towards more subtractions
[1]; 500 mg single dose, first (pre-task) post-dose assessment, p=0.004
  Bond-Lader content rating compared to placebo: less content
[1]; 500 mg single dose, first (pre-task) post-dose assessment, p=0.037
  Bond-Lader calm rating compared to placebo: less calm
[1]; 500 mg single dose, post task assessment, p=0.016
  Bond-Lader calm rating compared to placebo: more calm
[6]; 500 mg single dose, 4th repetition, p=0.065
  Subjective mental fatigue rating compared to placebo: trend towards the same effect
[6]; 500 mg single dose, 6th repetition, p=0.033
  Subjective mental fatigue rating compared to placebo: ratings of fatigue were lower
[6]; 500 mg single dose, after each repetition, numerical, significant only after the last set
  Subjective mental fatigue rating compared to placebo: numerically less ‘mentally fatigued’
[6]; 2000 mg single dose, 5th repetition, p=0.02
  Subjective mental fatigue rating compared to placebo: higher than placebo
[2]; 500 mg single dose, planned comparisons
  Performance of the CDB in comparison to placebo: significant improvements in performance of the CDB
[2]; 2000 mg single dose
  Performance of the CDB in comparison to placebo: no evidence of benefits
[2]
  Beneficial effect on fatigue / cognitive function, overall statement: pronounced
[7]; 500 mg single dose, 2nd repetition, p=0.015
  RVIP accuracy compared to placebo: outperformed placebo
[7]; 500 mg single dose, 3rd repetition, p=0.013
  RVIP speed of responses compared to placebo: performed faster
[7]; 500 mg single dose, 3rd repetition, p=0.036
  RVIP accuracy compared to placebo: outperformed placebo
[7]; 500 mg single dose, 4th repetition, p=0.07
  RVIP accuracy compared to placebo: trend towards the same effect
[7]; 500 mg single dose, each of 6 repetitions, significant only at the 3rd
  RVIP speed of responses compared to placebo: performed faster at each repetition
[7]; 2000 mg single dose, 4th repetition, p=0.089
  RVIP speed of responses compared to placebo: trend towards slower responding
